Experimental findings from patent publication US10758609B2, “Cross-reactive T-cell epitopes of HIV, SIV, and FIV for vaccines in humans and cats” (priority 2015, dated 2020) are described below.

In series [1] the test system is CD4^+ T cells from HIV^+ subjects. Particulars: HIV+ human subjects; for CyCD4 (cytolysin and cytotoxin production of CD4+ T cells), frequency of responders: HIV-1 peptides; for CyCD4: CD4+ T-cell cytolysin/cytotoxins (perforin, GrzA & B), frequency of responders: HIV-1 epitope peptide, threshold ≥0.2%. On the procedure:
(§1) The overlapping peptide pools of FIV and HIV-1 structural and enzyme proteins were used to stimulate the […] (PBMC) and the T cells from HIV^+ subjects as previously described for epitope mapping of HIV-1 and FIV p24 and reverse transcriptase (RT) (Sanou et al., 2013; Roff et al., 2015). The individual peptides in those peptide pools with positive responses to either interferon-γ (IFNγ) production and/or T-cell proliferation were determined with IFNγ ELISpot analysis and CFSE-based CD3^+CD4^+ and CD3^+CD8^+ T-cell proliferation analyses followed by the FACS-based intracellular staining (ICS) for cytolysin (perforin) and cytotoxin (granzyme A [GrzA] and GrzB) (Sanou et al., 2013; Roff et al., 2015). Besides viral p24 and RT proteins, the identical approach was used to identify anti-HIV/FIV T-cell epitopes on viral matrix (MA), nucleocapsid (NC), protease (PR), RNAase, integrase (IN), surface envelope (SU Env), and transmembrane envelope (TM Env) (FIG. 12).
(§2) Since our goal is to develop HIV vaccine for human use, the HIV peptides (Table 10) counterpart of the cross-reactive FIV peptides shown in Table 9 were tested with PBMC and T cells from HIV^+ subjects. The immune functions analyzed were human IFNγ production by ELISpot, cytolysin/cytotoxin production by ICS, and CFSE-based proliferation of CD3^+CD4^+ and CD3^+CD8^+ T cells from HIV^+ subjects (Table 10, the first set of results). In addition, the Los Alamos National Laboratories (LANL) database was used to identify the HLA allele(s) of the HIV epitope sequence with CTL activity that can exist within the sequence of the conserved counterpart HIV peptide (Table 9, LANL CTL). The bold HLA class-I supertypes and the bold 2-digit alleles are those on the “Optimal CD8^+ CTL Epitopes” list and those without bold are alleles for potential CTL epitope. […] The HLA class II such as HLA-DRB1 has yet to be fully classified into supertypes, and therefore the 4-digit resolution nomenclatures for the HLA-DRB1 alleles are shown.
(§3) The counterpart HIV-1 peptides of the FIV peptides were also tested for immunogenicity using PBMC and T cells from HIV^+ human subjects. […] The HRT7-1 and HRT7-2 were also tested with cells from HIV^+ subjects on ART. The threshold for positive IFNγ ELISpot response is ≥75 spot-forming units (SFU) per 10^6 PBMC. The threshold for CFSE-based CD4^+ (CD4^+ T) and CD8^+ (CD8^+ T) T-cell proliferation is ≥2% CD4^+ T-cell CFSE^low or CD8^+ T-cell CFSE^low. The threshold of intracellular cytokine staining (ICS) of FACS-based cytolysin (perforin) and cytotoxins (granzymes A and B) in CD4^+ T cells (CyCD4) and CD8^+ T cells (CyCD8) is ≥0.2%. […] The nine HIV-1 peptides in black are the counterpart FIV peptides used in the current MAP vaccine trial, whereas the 13 peptides in blue were not.

The subject of series [2] is CD8^+ T cells from HIV^+ subjects. The series is described as follows: FACS-based intracellular staining (ICS) for cytolysin (perforin) and cytotoxins (GrzA, GrzB) in CD8+ T cells. Particulars: HIV-1 epitope peptide; HIV+ human subjects; threshold ≥0.2%. On the procedure: as §1, §2
The threshold for positive IFNγ and IL2 ELISpot responses is ≥50 spot-forming units (SFU) per 10^6 PBMC. The threshold for CFSE-based CD4^+ and CD8^+ T-cell proliferation is ≥2% CD4^+ T-cell CFSE^low or CD8^+ T-cell CFSE^low. The threshold of FACS-based intracellular cytokine staining (ICS) is ≥0.2%. […] The nine FIV peptides in black were used in the current MAP vaccine trial, whereas the 13 peptides in blue were not used. […] The MAPs and their corresponding peptide(s) were also tested for their ability to enhance or suppress in vitro FIV infection of feline PBMC (E/S of peptides and E/S of MAP).
as §3

Residues, ends and D or L forms follow the SMILES beside them.

On to `CSCC[C@H](NC(=O)[C@H](Cc1c[nH]c2ccccc12)NC(=O)[C@H](CC(N)=O)NC(=O)[C@H](CCCCN)NC(=O)[C@@H](N)C(C)C)C(=O)N[C@H](C(=O)N[C@@H](CCC(=O)O)C(=O)N[C@H](C(=O)N[C@@H](CC(C)C)C(=O)N[C@@H](CC(C)C)C(=O)N[C@H](C(=O)N[C@@H](CCC(N)=O)C(=O)N[C@@H](CC(N)=O)C(=O)N[C@@H](C)C(=O)N[C@@H](CC(N)=O)C(=O)O)C(C)C)[C@@H](C)O)[C@@H](C)O` [Hp14-3(15-3)] (H-VKNWMTETLLVQNAN-OH; N-terminus and C-terminus assumed), for which the “CyCD4 (cytolysin and cytotoxin production of CD4+ T cells), frequency of responders” value in series [1] is on record as “++++ (>54% (++++))”.

Consider `CC(C)C[C@H](NC(=O)[C@H](C)NC(=O)[C@@H](N)CCC(=O)O)C(=O)N[C@@H](CC(C)C)C(=O)N[C@@H](CC(=O)O)C(=O)N[C@H](C(=O)NCC(=O)N[C@@H](C)C(=O)N[C@@H](CC(=O)O)C(=O)N[C@@H](CC(=O)O)C(=O)N[C@H](C(=O)N[C@H](C(=O)N[C@@H](CC(C)C)C(=O)N[C@@H](CCC(=O)O)C(=O)O)C(C)C)[C@@H](C)O)[C@@H](C)O` [HPR2] (H-EALLDTGADDTVLE-OH; N-terminus and C-terminus assumed), for which the “CyCD8: CD8+ T-cell cytolysin/cytotoxins (perforin, GrzA & B), frequency of responders” value (“CyCD8: CD8+ T-cell cytolysin/cytotoxins” below) in series [2] is given as “− (0%-1.4% (−))”. Also, the “CyCD4: CD4+ T-cell cytolysin/cytotoxins (perforin, GrzA & B), frequency of responders” value (“CyCD4: CD4+ T-cell cytolysin/cytotoxins” below) in series [1] was “− (0%-1.4% (−))”.

As for `CC[C@H](C)[C@H](NC(=O)CNC(=O)[C@H](CC(C)C)NC(=O)[C@H](CC(C)C)NC(=O)[C@H](CCC(N)=O)NC(=O)[C@H](CCC(N)=O)NC(=O)[C@H](CC(=O)O)NC(=O)[C@H](CCCCN)NC(=O)[C@H](CC(C)C)NC(=O)[C@@H](N)Cc1ccc(O)cc1)C(=O)N[C@@H](Cc1c[nH]c2ccccc12)C(=O)NCC(=O)N[C@@H](CS)C(=O)O` [HTM4-3] (H-YLKDQQLLGIWGC-OH; N-terminus and C-terminus assumed), in series [2], the “CyCD8: CD8+ T-cell cytolysin/cytotoxins” value is recorded as “+ (12.5%-25% (+))”. For the same molecule, the “CyCD4: CD4+ T-cell cytolysin/cytotoxins” value in series [1] is “− (0%-1.4% (−))”.

On to `CC[C@H](C)[C@H](NC(=O)[C@H](C)NC(=O)[C@@H]1CCCN1C(=O)[C@H](CO)NC(=O)CNC(=O)[C@H](CCCCN)NC(=O)[C@H](Cc1c[nH]c2ccccc12)NC(=O)CNC(=O)[C@H](CCC(N)=O)NC(=O)[C@@H]1CCCN1C(=O)[C@H](CC(C)C)NC(=O)[C@@H](NC(=O)[C@@H](N)CC(N)=O)C(C)C)C(=O)N[C@@H](Cc1ccccc1)C(=O)O` [HRT7-2], for which the “CyCD8: CD8+ T-cell cytolysin/cytotoxins” value in series [2] is “− (0%-1.4% (−))”. In series [1], the “CyCD4: CD4+ T-cell cytolysin/cytotoxins” value is recorded as “− (0%-1.4% (−))”.

As to `CC(C)[C@H](NC(=O)CNC(=O)[C@H](CO)NC(=O)[C@H](CCCNC(=N)N)NC(=O)[C@H](Cc1ccccc1)NC(=O)[C@H](CO)NC(=O)[C@H](CCC(=O)O)NC(=O)[C@H](CCC(=O)O)NC(=O)[C@@H]1CCCN1C(=O)[C@@H]1CCCN1C(=O)[C@H](C)NC(=O)[C@@H](N)[C@@H](C)O)C(=O)N[C@@H](CCC(=O)O)C(=O)N[C@H](C(=O)N[C@H](C(=O)N[C@H](C(=O)O)[C@@H](C)O)[C@@H](C)O)[C@@H](C)O` [HNC2] (H-TAPPEESFRSGVETTT-OH; N-terminus and C-terminus assumed), in series [2], the “CyCD8: CD8+ T-cell cytolysin/cytotoxins” value was “+ (12.5%-25% (+))”. Besides, the “CyCD4: CD4+ T-cell cytolysin/cytotoxins” value in series [1] was “− (0%-1.4% (−))”.

For `CC[C@H](C)[C@H](N)C(=O)N1CCC[C@H]1C(=O)N[C@H](C(=O)NCC(=O)N[C@@H](CCC(=O)O)C(=O)N[C@H](C(=O)N[C@@H](Cc1ccc(O)cc1)C(=O)N[C@@H](CCCCN)C(=O)N[C@@H](CCCNC(=N)N)C(=O)N[C@@H](Cc1c[nH]c2ccccc12)C(=O)N[C@H](C(=O)N[C@H](C(=O)N[C@@H](CC(C)C)C(=O)NCC(=O)O)[C@@H](C)CC)[C@@H](C)CC)[C@@H](C)CC)C(C)C` [Hp9-3(10-3)], the “CyCD4 (cytolysin and cytotoxin production of CD4+ T cells), frequency of responders” value in series [1] is “+ (12.5%-25% (+))”.

As to `CC(C)C[C@H](NC(=O)[C@H](CCC(=O)O)NC(=O)[C@H](CCCNC(=N)N)NC(=O)[C@H](Cc1ccccc1)NC(=O)[C@H](CC(=O)O)NC(=O)[C@@H](NC(=O)[C@H](CC(C)C)NC(=O)[C@H](CCCCN)NC(=O)[C@H](CCCNC(=N)N)NC(=O)[C@@H](N)Cc1c[nH]c2ccccc12)C(C)C)C(=O)N[C@@H](CC(N)=O)C(=O)N[C@@H](CCCCN)C(=O)N[C@@H](CCCNC(=N)N)C(=O)O` [HRT3-4], the “CyCD8: CD8+ T-cell cytolysin/cytotoxins” value in series [2] is reported as “++++ (>54% (++++))”. Besides, in series [1], the “CyCD4: CD4+ T-cell cytolysin/cytotoxins” value is “++++ (>54% (++++))”; the “CyCD4 (cytolysin and cytotoxin production of CD4+ T cells), frequency of responders” value was “++++ (>54% (++++))”.

Consider `CSCC[C@H](NC(=O)[C@H](Cc1c[nH]c2ccccc12)NC(=O)[C@H](CC(N)=O)NC(=O)[C@H](CCCCN)NC(=O)[C@@H](NC(=O)[C@H](CCC(=O)O)NC(=O)[C@H](CCC(N)=O)NC(=O)[C@H](CO)NC(=O)[C@H](C)N)C(C)C)C(=O)N[C@H](C(=O)N[C@@H](CCC(=O)O)C(=O)N[C@H](C(=O)N[C@@H](CC(C)C)C(=O)N[C@@H](CC(C)C)C(=O)N[C@H](C(=O)O)C(C)C)[C@@H](C)O)[C@@H](C)O` [Hp14-2(15-2)] (H-ASQEVKNWMTETLLV-OH; N-terminus and C-terminus assumed), for which the “CyCD4 (cytolysin and cytotoxin production of CD4+ T cells), frequency of responders” value in series [1] was “++++ (>54% (++++))”.

As to `CC[C@H](C)[C@H](NC(=O)CN)C(=O)N[C@@H](CCCNC(=N)N)C(=O)N[C@@H](Cc1ccc(O)cc1)C(=O)N[C@@H](CCC(N)=O)C(=O)N[C@@H](Cc1ccc(O)cc1)C(=O)N[C@@H](CC(N)=O)C(=O)N[C@H](C(=O)N[C@@H](CC(C)C)C(=O)N1CCC[C@H]1C(=O)N[C@@H](CCC(N)=O)C(=O)NCC(=O)N[C@@H](Cc1c[nH]c2ccccc12)C(=O)N[C@@H](CCCCN)C(=O)NCC(=O)O)C(C)C` [HRT7-1], in series [2], the “CyCD8: CD8+ T-cell cytolysin/cytotoxins” value is listed as “− (0%-1.4% (−))”. For the same molecule, the “CyCD4: CD4+ T-cell cytolysin/cytotoxins” value in series [1] is “− (0%-1.4% (−))”.

Take `CC[C@H](C)[C@H](NC(=O)[C@H](CCCCN)NC(=O)[C@@H](NC(=O)[C@@H](NC(=O)[C@H](CCCCN)NC(=O)[C@H](Cc1ccc(O)cc1)NC(=O)[C@H](CCCCN)NC(=O)[C@H](Cc1ccc(O)cc1)NC(=O)[C@H](CC(C)C)NC(=O)[C@H](CCC(=O)O)NC(=O)[C@H](CO)NC(=O)[C@H](CCCNC(=N)N)NC(=O)[C@H](Cc1c[nH]c2ccccc12)NC(=O)[C@H](CC(N)=O)NC(=O)[C@@H](N)CC(=O)O)C(C)C)C(C)C)C(=O)O` [HSU4] (H-DNWRSELYKYKVVKI-OH; N-terminus and C-terminus assumed): the “CyCD8: CD8+ T-cell cytolysin/cytotoxins” value in series [2] is “+ (12.5%-25% (+))”. In series [1], the “CyCD4: CD4+ T-cell cytolysin/cytotoxins” value is “− (0%-1.4% (−))”.

Regarding `CSCC[C@H](NC(=O)[C@@H](NC(=O)[C@H](CC(N)=O)NC(=O)[C@H](CC(C)C)NC(=O)[C@H](CC(=O)O)NC(=O)[C@H](CCC(N)=O)NC(=O)[C@@H]1CCCN1)[C@@H](C)O)C(=O)N[C@@H](CC(C)C)C(=O)N[C@@H](CC(N)=O)C(=O)N[C@H](C(=O)N[C@H](C(=O)NCC(=O)NCC(=O)N[C@@H](Cc1c[nH]cn1)C(=O)N[C@@H](CCC(N)=O)C(=O)O)C(C)C)[C@@H](C)O` [Hp4-3] (H-PQDLNTMLNTVGGHQ-OH; N-terminus and C-terminus assumed), the “CyCD8: CD8+ T-cell cytolysin/cytotoxins” value in series [2] is reported as “++ (25.1%-40% (++))”. The “CyCD4: CD4+ T-cell cytolysin/cytotoxins” value in series [1] is recorded as “− (0%-1.4% (−))”.
